ChEMBL document CHEMBL1201862, “PubChem BioAssay data set” (2004)
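Tested at 5 concentrations; 48 h exposure; 96-well plates; endpoints linearly interpolated, else capped at highest concentration. Here, GI50 denotes the concentration required for 50% inhibition of growth.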 The source made the active and inactive calls. Cut-off read from the data, not from the text of the source: active = GI50 up to about 1.1 µM and inactive = higher.

How the values were obtained:
Assay in all cases: NCI tumour cell line growth inhibition, 48 h
A549 = tested on: A549
ACHN = tested on: ACHN
CAKI-1 = tested on: CAKI-1
CCRF-CEM = tested on: CCRF-CEM
HL-60 = tested on: HL-60
HT-29 = tested on: HT-29
KM12 = tested on: KM12
Malme-3M = tested on: Malme-3M
NCI-H226 = tested on: NCI-H226
OVCAR-3 = tested on: OVCAR-3
OVCAR-5 = tested on: OVCAR-5
SF-268 = tested on: SF-268
SF-295 = tested on: SF-295
SF-539 = tested on: SF-539
SK-MEL-28 = tested on: SK-MEL-28
SN12C = tested on: SN12C
SNB-75 = tested on: SNB-75
SR = tested on: SR
SW-620 = tested on: SW-620
RPMI-8226 = tested on: RPMI-8226

Row | SMILES | GI50 (A549) | GI50 (ACHN) | GI50 (CAKI-1) | GI50 (CCRF-CEM) | GI50 (HL-60) | GI50 (HT-29) | GI50 (KM12) | GI50 (Malme-3M) | GI50 (NCI-H226) | GI50 (OVCAR-3) | GI50 (OVCAR-5) | GI50 (SF-268) | GI50 (SF-295) | GI50 (SF-539) | GI50 (SK-MEL-28) | GI50 (SN12C) | GI50 (SNB-75) | GI50 (SR) | GI50 (SW-620) | GI50 (RPMI-8226)
1 | CC1=C[C@@H]2[C@@H](CC(CO)=C[C@H]3[C@@H]4C(C)(C)[C@]4(OCC(C)C)[C@H](OCC(C)C)[C@@H](C)[C@]23O)C1=O | 0.578 µM (active) | 1.23 µM (inactive) | 1.38 µM (inactive) | 0.741 µM (active) | 0.495 µM (active) | 1.21 µM (inactive) | 2.16 µM (inactive) | 0.766 µM (active) | 1.36 µM (inactive) | 2.17 µM (inactive) | 2.23 µM (inactive) | 3.43 µM (inactive) | 0.92 µM (active) | 0.975 µM (active) | 1.3 µM (inactive) | 1.73 µM (inactive) | 2.97 µM (inactive) | 1.14 µM (inactive) | 1.19 µM (inactive) | –
2 | CC(=O)C1=C(C)NC(=C(C#N)C#N)C(C#N)=C1 | > 100 µM (inactive) | > 100 µM (inactive) | > 100 µM (inactive) | > 100 µM (inactive) | > 100 µM (inactive) | > 100 µM (inactive) | > 100 µM (inactive) | > 100 µM (inactive) | > 100 µM (inactive) | – | > 100 µM (inactive) | > 100 µM (inactive) | – | > 100 µM (inactive) | > 100 µM (inactive) | > 100 µM (inactive) | > 100 µM (inactive) | > 100 µM (inactive) | > 100 µM (inactive) | > 100 µM (inactive)
3 | COC(=O)C(NC(=O)c1ccccc1)C(c1c(O)cc(O)cc1O)P(=O)(OC)OC (stereo unspecified) | > 100 µM (inactive) | > 100 µM (inactive) | > 100 µM (inactive) | 32 µM (inactive) | 74 µM (inactive) | > 100 µM (inactive) | > 100 µM (inactive) | – | > 100 µM (inactive) | – | > 100 µM (inactive) | > 100 µM (inactive) | > 100 µM (inactive) | > 100 µM (inactive) | > 100 µM (inactive) | > 100 µM (inactive) | > 100 µM (inactive) | > 100 µM (inactive) | > 100 µM (inactive) | 95.9 µM (inactive)
4 | COc1ccc2nc(-c3ccc(N)cc3)sc2c1 | 68.1 µM (inactive) | 51.6 µM (inactive) | > 100 µM (inactive) | 4.89 µM (inactive) | 47.5 µM (inactive) | 66.5 µM (inactive) | 22.3 µM (inactive) | > 100 µM (inactive) | 34.2 µM (inactive) | > 100 µM (inactive) | > 100 µM (inactive) | 63.2 µM (inactive) | 43.1 µM (inactive) | > 100 µM (inactive) | > 100 µM (inactive) | – | 44.8 µM (inactive) | 32.4 µM (inactive) | > 100 µM (inactive) | –
5 | N#CC12C3C4CC5C6C4C1C6C(O)(C53)N2Cc1ccccc1 (stereo unspecified) | > 100 µM (inactive) | > 100 µM (inactive) | > 100 µM (inactive) | > 100 µM (inactive) | > 100 µM (inactive) | > 100 µM (inactive) | > 100 µM (inactive) | > 100 µM (inactive) | > 100 µM (inactive) | > 100 µM (inactive) | > 100 µM (inactive) | > 100 µM (inactive) | > 100 µM (inactive) | > 100 µM (inactive) | > 100 µM (inactive) | > 100 µM (inactive) | > 100 µM (inactive) | > 100 µM (inactive) | > 100 µM (inactive) | > 100 µM (inactive)
6 | CC(C)OP(=O)(OC(C)C)/C(=N/Nc1ccc([N+](=O)[O-])cc1)Nc1ccc(N/C(=N\Nc2ccc([N+](=O)[O-])cc2)P(=O)(OC(C)C)OC(C)C)cc1 | 4.91 µM (inactive) | 23.4 µM (inactive) | 32.8 µM (inactive) | 2.95 µM (inactive) | 20.9 µM (inactive) | – | 7.93 µM (inactive) | > 100 µM (inactive) | 74.1 µM (inactive) | 70.1 µM (inactive) | 71.8 µM (inactive) | > 100 µM (inactive) | – | 57.3 µM (inactive) | > 100 µM (inactive) | > 100 µM (inactive) | 14.2 µM (inactive) | 5.66 µM (inactive) | – | 5.24 µM (inactive)
7 | COC(=O)C(=O)c1c2ccccc2n2ccc3c4ccccc4[nH]c3c12 | > 10 µM (inactive) | > 10 µM (inactive) | > 10 µM (inactive) | > 10 µM (inactive) | > 10 µM (inactive) | > 10 µM (inactive) | > 10 µM (inactive) | > 10 µM (inactive) | > 10 µM (inactive) | > 10 µM (inactive) | > 10 µM (inactive) | > 10 µM (inactive) | > 10 µM (inactive) | 3.27 µM (inactive) | – | > 10 µM (inactive) | > 10 µM (inactive) | > 10 µM (inactive) | > 10 µM (inactive) | > 10 µM (inactive)
8 | NC(CCCCO)C(=O)O (stereo unspecified) | > 100 µM (inactive) | > 100 µM (inactive) | > 100 µM (inactive) | > 100 µM (inactive) | > 100 µM (inactive) | > 100 µM (inactive) | > 100 µM (inactive) | > 100 µM (inactive) | > 100 µM (inactive) | > 100 µM (inactive) | > 100 µM (inactive) | > 100 µM (inactive) | > 100 µM (inactive) | – | > 100 µM (inactive) | – | > 100 µM (inactive) | > 100 µM (inactive) | > 100 µM (inactive) | > 100 µM (inactive)
9 | COCOc1cc(OC)c(Br)cc1C/C(=N/O)C(=O)OC | 91.6 µM (inactive) | > 100 µM (inactive) | 48.8 µM (inactive) | 37.8 µM (inactive) | 52.7 µM (inactive) | > 100 µM (inactive) | > 100 µM (inactive) | 25.5 µM (inactive) | > 100 µM (inactive) | 43.1 µM (inactive) | > 100 µM (inactive) | 39.8 µM (inactive) | > 100 µM (inactive) | > 100 µM (inactive) | > 100 µM (inactive) | > 100 µM (inactive) | 7.6 µM (inactive) | 34.7 µM (inactive) | > 100 µM (inactive) | –
10 | COC(=O)CCC(=O)c1ccc2c(c1)CCC2 | > 100 µM (inactive) | > 100 µM (inactive) | > 100 µM (inactive) | > 100 µM (inactive) | > 100 µM (inactive) | > 100 µM (inactive) | – | > 100 µM (inactive) | – | > 100 µM (inactive) | > 100 µM (inactive) | > 100 µM (inactive) | > 100 µM (inactive) | > 100 µM (inactive) | > 100 µM (inactive) | – | > 100 µM (inactive) | > 100 µM (inactive) | > 100 µM (inactive) | > 100 µM (inactive)
11 | CC1CCC2(NC1)OC1CC3C4CC=C5CC(OC6OC(CO)C(OC7OC(C)C(O)C(O)C7O)C(O)C6OC6OC(C)C(O)C(O)C6O)CCC5(C)C4CCC3(C)C1C2C (stereo unspecified) | 3.15 µM (inactive) | 3.91 µM (inactive) | 4.36 µM (inactive) | 15 µM (inactive) | 4.41 µM (inactive) | 5.69 µM (inactive) | 3.46 µM (inactive) | 2.46 µM (inactive) | 2.46 µM (inactive) | 1.96 µM (inactive) | 5.66 µM (inactive) | 2 µM (inactive) | 2.08 µM (inactive) | 3.3 µM (inactive) | 1.91 µM (inactive) | 2.24 µM (inactive) | 2.5 µM (inactive) | 3.08 µM (inactive) | 4.4 µM (inactive) | 12.8 µM (inactive)
12 | CCCc1c2c3ccccc3nc-2nc2ccccn12 | 83.4 µM (inactive) | 46.7 µM (inactive) | > 100 µM (inactive) | > 100 µM (inactive) | 35.6 µM (inactive) | 43.6 µM (inactive) | 49.4 µM (inactive) | 61.7 µM (inactive) | – | 56 µM (inactive) | 25.2 µM (inactive) | 24.4 µM (inactive) | 49.8 µM (inactive) | > 100 µM (inactive) | > 100 µM (inactive) | 73.5 µM (inactive) | > 100 µM (inactive) | 49.1 µM (inactive) | 36.4 µM (inactive) | 41.9 µM (inactive)
13 | CCOC(=O)N1c2ccccc2C(C)=CC(C)C1C (stereo unspecified) | 22.6 µM (inactive) | 49.7 µM (inactive) | 16.2 µM (inactive) | 21.9 µM (inactive) | 27.2 µM (inactive) | 10.7 µM (inactive) | 9.82 µM (inactive) | 33.9 µM (inactive) | 22.8 µM (inactive) | 16.7 µM (inactive) | 40.1 µM (inactive) | 38 µM (inactive) | 23.9 µM (inactive) | 20.4 µM (inactive) | 35.9 µM (inactive) | 40.7 µM (inactive) | 19.1 µM (inactive) | 5.09 µM (inactive) | 29.4 µM (inactive) | 56.8 µM (inactive)
14 | O=C1CCC2=C(CCC2)N1CCc1ccc2c(c1)OCO2 | 62.1 µM (inactive) | 77.3 µM (inactive) | 81.8 µM (inactive) | 29.2 µM (inactive) | 7.62 µM (inactive) | 92 µM (inactive) | 62.4 µM (inactive) | > 100 µM (inactive) | 20.5 µM (inactive) | – | 42.6 µM (inactive) | 77.6 µM (inactive) | 55.3 µM (inactive) | > 100 µM (inactive) | > 100 µM (inactive) | 95.1 µM (inactive) | 29.2 µM (inactive) | 30.9 µM (inactive) | > 100 µM (inactive) | < 0.01 µM (active)
15 | Nc1ccn(CCO)c(=O)n1 | > 100 µM (inactive) | > 100 µM (inactive) | > 100 µM (inactive) | > 100 µM (inactive) | > 100 µM (inactive) | > 100 µM (inactive) | > 100 µM (inactive) | > 100 µM (inactive) | > 100 µM (inactive) | > 100 µM (inactive) | > 100 µM (inactive) | > 100 µM (inactive) | > 100 µM (inactive) | > 100 µM (inactive) | > 100 µM (inactive) | > 100 µM (inactive) | > 100 µM (inactive) | > 100 µM (inactive) | > 100 µM (inactive) | > 100 µM (inactive)
